The values below come from ChEMBL document CHEMBL1201862, “PubChem BioAssay data set” (2004).

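Assay format: 96-well plates, 48-hour exposure. Here, GI50 denotes the concentration required for 50% inhibition of growth.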 The source made the active and inactive calls. Cut-off read from the data, not from the text of the source: active = GI50 up to about 1.1 µM and inactive = higher.

Test systems include SK-MEL-28; SK-MEL-5; UACC-257; LOX IMVI; SF-268; CCRF-CEM; RPMI-8226; A549; U-251; SK-OV-3; HL-60; MOLT-4; IGROV-1; KM12; HOP-62; COLO 205; HT-29; NCI/ADR-RES; M14; NCI-H522.
Test in all cases: NCI-60 cell line screen, 48 h

Regarding `CN(C)CCNC(=O)c1cc(Cl)cc2cc3ccccc3nc12`, the GI50 in the test with SK-MEL-28 is 1.76 µM (inactive); in the test on SK-MEL-5, 1.31 µM (inactive); in the test on UACC-257 it was 1.6 µM (inactive); in the test with LOX IMVI, 0.597 µM (active); in the test on SF-268, 1.22 µM (inactive); in the test with CCRF-CEM it was 0.498 µM (active). The GI50 in the test on RPMI-8226 is 0.721 µM (active); in the test with A549, 0.557 µM (active); in the test on U-251, 1.64 µM (inactive); in the test on SK-OV-3, 2.21 µM (inactive); in the test on HL-60, 0.578 µM (active); with MOLT-4, 0.396 µM (active). The GI50 is 1.14 µM (inactive) in the test on IGROV-1; 1.17 µM (inactive) in the test with KM12; 1.62 µM (inactive) in the test with HOP-62; 0.433 µM (active) in the test on COLO 205; 0.455 µM (active) in the test on HT-29; 0.766 µM (active) with NCI/ADR-RES.
With `O=C1C=C/C(=C/[C@H]2SSC=C[C@]23C=CC(=O)C3)C1`, the GI50 was 17.2 µM (inactive) with M14; 18.9 µM (inactive) in the test on SK-MEL-28; 16.9 µM (inactive) in the test with SK-MEL-5; 28.1 µM (inactive) in the test on UACC-257; 10.3 µM (inactive) in the test with LOX IMVI; 26.5 µM (inactive) with SF-268. The GI50 in the test on CCRF-CEM was 2.54 µM (inactive); in the test on A549, 22.8 µM (inactive); in the test on U-251, 28.5 µM (inactive); with SK-OV-3 it was 49.7 µM (inactive); in the test with HL-60, 2.38 µM (inactive); with NCI-H522, 11 µM (inactive). In addition, the GI50 in the test with MOLT-4 is 1.36 µM (inactive); with IGROV-1, 17.8 µM (inactive); with KM12, 21.3 µM (inactive); in the test with HOP-62 it was 27.9 µM (inactive); with COLO 205 it was 13 µM (inactive); in the test with HT-29 it was 11 µM (inactive). For the same molecule, in the test on NCI/ADR-RES, the GI50 was 23.8 µM (inactive).
Take `O=C(O)C(F)(F)C(F)(F)C(F)(F)C(F)(F)C(F)(F)C(F)(F)C(F)(F)C(F)(F)F`: the GI50 in the test on M14 is 28.1 µM (inactive); in the test on SK-MEL-28 it was > 100 µM (inactive); in the test on SK-MEL-5 it was 80 µM (inactive); in the test with UACC-257, > 100 µM (inactive); in the test with LOX IMVI, 42.3 µM (inactive); in the test on SF-268 it was 54.7 µM (inactive). For the same molecule, the GI50 in the test on CCRF-CEM was 28.2 µM (inactive); in the test on A549, 47.8 µM (inactive); in the test with U-251, 26.4 µM (inactive); with SK-OV-3, 29.6 µM (inactive); in the test on HL-60, 25.2 µM (inactive); in the test with NCI-H522 it was 62.5 µM (inactive). In addition, the GI50 was > 100 µM (inactive) in the test with MOLT-4; > 100 µM (inactive) with IGROV-1; 53.1 µM (inactive) in the test with KM12; 52.6 µM (inactive) with HOP-62; 48.5 µM (inactive) in the test on COLO 205; 48.2 µM (inactive) in the test with HT-29. In addition, the GI50 in the test on NCI/ADR-RES is 44.9 µM (inactive).
As for `COc1cccc(N2C(=O)CSC2c2cccc(Oc3ccccc3)c2)c1` (centres undefined), the GI50 in the test with M14 was 4.79 µM (inactive); with SK-MEL-28, 19 µM (inactive); in the test with SK-MEL-5, 4.36 µM (inactive); in the test on UACC-257, 3.08 µM (inactive); with LOX IMVI it was 6.87 µM (inactive); in the test on SF-268, 6.79 µM (inactive). Moreover, the GI50 is 9.33 µM (inactive) in the test on CCRF-CEM; 9.53 µM (inactive) with A549; 5.22 µM (inactive) in the test with U-251; 16.1 µM (inactive) in the test with SK-OV-3; 4.39 µM (inactive) in the test with HL-60; 3.34 µM (inactive) in the test with NCI-H522. Further, the GI50 was 3.88 µM (inactive) in the test on MOLT-4; 4.35 µM (inactive) with KM12; 9.38 µM (inactive) in the test on HOP-62; 3.37 µM (inactive) with COLO 205; 4.28 µM (inactive) in the test on HT-29; 3.61 µM (inactive) with NCI/ADR-RES.
